Values of other authors as cited in paper PMC4258163 (Bioorganic & medicinal chemistry letters, 2014).

Key:
[1] = systemic administration, mice
[2] = test system: animal model of anxiety; details: versus selective FAAH or TRPV1 inhibitors
[3] = test system: osteoarthritis pain

SMILES: CCCCC/C=C\C/C=C\C/C=C\C/C=C\CCCC(=O)NCCc1c[nH]c2ccc(O)cc12 [AA-5-HT, N-arachidonoyl serotonin]
- Hyperthermia [1]: did not cause hyperthermia
- Effectiveness in an animal model of anxiety [2]: more effective

SMILES: O=C(Nc1cccnn1)N1CCC(=Cc2cccc(Oc3ccc(C(F)(F)F)cn3)c2)CC1 [PF-04457845]
- excess of anandamide in the blood of patients ([3]; patients treated with the inhibitor): greater than 10 fold
- Efficacy in treating osteoarthritis pain ([3]; phase II clinical trial, compared with naproxen): lack of efficacy
